The results in this text go back to publication PMC5947510 (2015).

The assay has as its system pre-miR-27a (RNA, miRNA) GGGCUGAGGAGCAGGGCUUAGCUGCUUGUGAGCAGGGUCCACACCAAGUCGUGUUCACAGUGGCUAAGUUCCGCCCCCCAG
Briefly: fluorescence titration (bisbenzimidazole emission). Conditions: 10 mM NaCl, 1 mM MgCl2; 10 mM sodium cacodylate, pH 7.5, 25 °C; compound 500 nM.

`CN1CCN(c2ccc3nc(-c4ccc5nc(-c6ccc(O)cc6)[nH]c5c4)[nH]c3c2)CC1` had a Ka of 3.4e+06 M⁻¹.
`CN1CCN(c2ccc3nc(-c4ccc5nc(-c6ccc(OCCCCCCCCCCOCc7cn(C[C@H]8O[C@@H](O[C@@H]9[C@@H](O)[C@H](N)C[C@H](N)[C@H]9O[C@H]9O[C@H](CN)[C@@H](O)[C@H](O)[C@H]9N)[C@H](O)[C@@H]8O[C@H]8O[C@@H](CN)[C@@H](O)[C@H](O)[C@H]8N)nn7)cc6)[nH]c5c4)[nH]c3c2)CC1` showed a Ka of 1.2e+07 M⁻¹.
In the case of `CN1CCN(c2ccc3nc(-c4ccc5nc(-c6ccc(OCCCCCCCCCc7cn(C[C@H]8O[C@@H](O[C@@H]9[C@@H](O)[C@H](N)C[C@H](N)[C@H]9O[C@H]9O[C@H](CN)[C@@H](O)[C@H](O)[C@H]9N)[C@H](O)[C@@H]8O[C@H]8O[C@@H](CN)[C@@H](O)[C@H](O)[C@H]8N)nn7)cc6)[nH]c5c4)[nH]c3c2)CC1` it was 3.2e+08 M⁻¹; in that of `CN1CCN(c2ccc3nc(-c4ccc5nc(-c6ccc(OCCCCCCCCOCc7cn(C[C@H]8O[C@@H](O[C@@H]9[C@@H](O)[C@H](N)C[C@H](N)[C@H]9O[C@H]9O[C@H](CN)[C@@H](O)[C@H](O)[C@H]9N)[C@H](O)[C@@H]8O[C@H]8O[C@@H](CN)[C@@H](O)[C@H](O)[C@H]8N)nn7)cc6)[nH]c5c4)[nH]c3c2)CC1`, 2.5e+07 M⁻¹.
In the case of `CN1CCN(c2ccc3nc(-c4ccc5nc(-c6ccc(OCCCCCCOCc7cn(C[C@H]8O[C@@H](O[C@@H]9[C@@H](O)[C@H](N)C[C@H](N)[C@H]9O[C@H]9O[C@H](CN)[C@@H](O)[C@H](O)[C@H]9N)[C@H](O)[C@@H]8O[C@H]8O[C@@H](CN)[C@@H](O)[C@H](O)[C@H]8N)nn7)cc6)[nH]c5c4)[nH]c3c2)CC1` it was 1.2e+08 M⁻¹.
Under `CN1CCN(c2ccc3nc(-c4ccc5nc(-c6ccc(OCCCCOCc7cn(C[C@H]8O[C@@H](O[C@@H]9[C@@H](O)[C@H](N)C[C@H](N)[C@H]9O[C@H]9O[C@H](CN)[C@@H](O)[C@H](O)[C@H]9N)[C@H](O)[C@@H]8O[C@H]8O[C@@H](CN)[C@@H](O)[C@H](O)[C@H]8N)nn7)cc6)[nH]c5c4)[nH]c3c2)CC1` stands 7.4e+08 M⁻¹.
